For one assay, the system named is NFκB activity. The assay can be described thus: NFκB firefly luciferase reporter assay in U2OS cells. As to conditions: 20 μM peptide or cisplatin, 20 hours. The format is cell-based, human. As to the method:
U2OS Cells (1×10^5) were plated in 6 well plates and transfected with 1 μg of a firefly luciferase reporter plasmid for NFκB activity and 0.1 μg of a plasmid encoding the Renilla luciferase. The cells were treated one day later with the indicated concentrations of cisplatin in the absence or in the presence of 20 μM HV-TAT48-57 or TAT-RaSGAP317-326 peptides during 20 hours. The data represent the firefly luciferase activity normalized to the Renilla luciferase activity and expressed as fold increase of the basal NFκB activity obtained in control untreated cells. The results correspond to the mean±standard deviation of three independent determinations. Asterisks denote significant differences between the indicated conditions (**, p<0.01; ***, p<0.001).
U2OS cells were transfected with 1 μg of a firefly luciferase reporter plasmid for NFκB activity, 0.1 μg of a plasmid encoding the Renilla luciferase, 0.5 μg of a GFP-expressing plasmid (to label the transfected cells), 1 μg of a plasmid encoding IκBαΔN2 that inhibit the NFκB pathway or with 1 μg an empty pcDNA3 vector. The cells were incubated one day later with increasing concentrations of cisplatin in the presence of 20 μM HIV-TAT48-57 or 20 μM TAT-RasGAP317-326 for an additional 20 hour period. The cells were then lysed and the NFκB activity assessed as described in panel A, except that the results were expressed as fold increase of the NFκB activity detected in cells incubated with the control HV-TAT48-57 peptide.
Luciferase assay was performed using the Dual-Luciferase® Reporter Assay from Promega (cat. no E1910). […] The firefly luciferase activity was recorded by mixing 20 μl of the lysate with 25 μl of the LARII Reagent and the Renilla luciferase activity was recorded by adding to the previous mix 25 μl of the Stop & Glo Reagent. For each measurement, light emission was quantified during 12 seconds using a Lumat LB 9501 luminometer (Berthold Technologies, Zurich, Switzerland).

Another assay relates to JNK. The assay can be described thus: Western blot of phospho-JNK in U2OS cells. In kind it is cell-based, human. As to conditions: 20 μM peptide. On the procedure:
(§1) U2OS cells (2×10^5) were plated in 6 well plates and treated for the indicated periods of time with the indicated combinations of the HW-TAT48-57 or TAT-RasGAP317-326 peptides (at a 20 μM concentration) and cisplatin (at a 30 μM concentration). Positive controls for JNK and p38 activation were obtained following stimulation of the cells with 1 μg/ml anisomycine during 3 hours and with 0.5 M sorbitol for 30 min, respectively. The quantitations depicted under the Western blots were performed on the 12-hour bands and normalized against the positive controls. The results correspond to the mean±standard deviation of three independent experiments. […]

A further assay relates to p38 MAPKs. As to the kind of experiment: Western blot of phospho-p38 in U2OS cells. The format is cell-based, human. The following applies: 20 μM peptide. On the procedure:
as §1
(In general: Immunoblotting shows a protein as a band on a membrane.)

The test system of assay [1] is HeLa cells. As to the kind of experiment: Apoptosis (pycnotic nuclei) of HeLa cells transfected with RasGAP constructs and treated with genotoxins. In kind it is cell-based, human. The following applies: for potentiation of cisplatin-induced apoptosis in HeLa cells: transfected construct, 0.15 μM cisplatin, apoptosis scored 20 hours later. As to the method: HeLa cells (2×10^6) were plated in 10-cm-diameter Petri dishes, transfected with 1 μg of GFP-expressing plasmid (to label the transfected cells) together with 2 μg of an empty pcDNA3 plasmid or 2 μg of a pcDNA3 vector encoding fragment N2. One day following the transfection, the cells were incubated for 24 hours with the indicated concentrations of cisplatin, adriamycin or mitoxantrone. The number of GFP-positive cells displaying pycnotic nucleus was then scored.
HeLa cells were transfected as described in FIG. 1 with plasmids endoding the constructs described in FIG. 2A. HeLa cells were then treated or not with 0.15 μM cisplatin and the extent of apoptosis was determined 20 hours later. The results correspond to the mean±standard deviation of three independent determinations. Asterisks denote a significant difference between the cells treated with 0.15 μM cisplatin and the cells without treatment (**, p<0.01; ***, p<0.001).
HeLa and MCF-7 cells were maintained in RPMI 1640 (Sigma; cat. no 8758) containing 10% newborn calf serum (Sigma; cat. no N4637) at 37° C. and 5% CO2. U2OS cells were maintained in DMEM (Sigma; cat. no 5796) containing 15% foetal calf serum (Sigma; cat. no F7524) at 37° C. and 5% CO2. H-Meso-1 cells were maintained in RPMN 1640 containing 10% foetal calf serum at 37° C. and 5% CO2. […] After 8 hours at 37° C. and 5% CO2, the medium was replaced with fresh culture medium and the cells were further incubated for 16-24 hours before being analyzed.
Apoptosis was determined by scoring the number of cells displaying pycnotic nuclei. Nuclei of live cells were labeled with Hoechst 33342 (10 μg/ml final concentration) for about 5 minutes and the cells were then analyzed (at least 400 cells per condition) using an inverted Leica DMIRB microscope equipped with fluorescence and transmitted light optics. […] In this case, the extent of apoptosis was assessed in the transfected cells only. […]

Assay [2] deals with HeLa cells. The following applies: Yang and Widmann 2001; cited from earlier work.

Take `N.N.[Cl][Pt][Cl]` [cisplatin, reference compound]: the “NFkB activation in U2OS cells (single agent)” value in the assay with NFκB activity was “activated”.
Take “GRKKRRQRRR [HIV-TAT48-57, reference compound]”: in the assay with JNK, the “activation of JNK pathway by peptide alone” value is “neither the control HIV-TAT48-57 peptide nor the TAT-RasGAP317-326 peptide activated these MAPK pathways”. Moreover, the “activation of p38 MAPK pathway by peptide alone” value in the assay with p38 MAPKs is listed as “neither the control HIV-TAT48-57 peptide nor the TAT-RasGAP317-326 peptide activated these MAPK pathways”.
For the molecule “WMWVTNLRTD (listed as Homo sapiens) [317-326, 10 amino acid long peptide expressed from a transfected construct]”, the “potentiation of cisplatin-induced apoptosis in HeLa cells” value with HeLa cells [1] was “potentiated the ability of cisplatin to kill HeLa cells”.

B1: SH2 domain: human RasGAP amino acids 158-277, expressed from plasmid SH2.dn3 (protein, UniProt P20936 158-277, looked up, fragment)
chain: SLDGPEYEEEEVAIPLTAPPTNQWYHGKLDRTIAEERLRQAGKSGSYLIRESDRRPGSFVLSFLSQMNVVNHFRIIAMCGDYYIGGRRFSSLSDLIGYYSHVSCLLKGEKLLYPVAPPEP
modifications: SH2 domain
notes: human RasGAP amino acids 158-277, expressed from plasmid SH2.dn3
Take B1: in the assay with HeLa cells [1], the “potentiation of cisplatin-induced apoptosis in HeLa cells” value is on record as “did not enhance the ability of cisplatin to kill HeLa cells”.

B2: fragment N2: human RasGAP amino acids 158 to 455, 36 kDa, expressed from plasmid N2.dn3 (protein, UniProt P20936 158-455, looked up, fragment)
chain: SLDGPEYEEEEVAIPLTAPPTNQWYHGKLDRTIAEERLRQAGKSGSYLIRESDRRPGSFVLSFLSQMNVVNHFRIIAMCGDYYIGGRRFSSLSDLIGYYSHVSCLLKGEKLLYPVAPPEPVEDRRRVRAILPYTKVPDTDEISFLKGDMFIVHNELEDGWMWVTNLRTDEQGLIVEDLVEEVGREEDPHEGKIWFHGKISKQEAYNLLMTVGQVCSFLVRPSDNTPGDYSLYFRTNENIQRFKICPTPNNQFMMGGRYYNSIGDIIDHYRKEQIVEGYYLKEPVPMQDQEQVLNDTVD
Consider B2, for which the “sensitivity of HeLa cells towards the various drugs relative to control cells” value in the assay with HeLa cells [1] (HeLa cells expressing fragment N2 vs empty pcDNA3, cisplatin, adriamycin, mitoxantrone, 24 hours) was “at least 10 times”. The “ability of cisplatin to kill the HeLa tumor cell line” value in the assay on HeLa cells [2] is “enhances the ability of cisplatin to kill the HeLa tumor cell line”.
